In the supplement of paper PMC11208160:

Assay: recombinant UMI read abundance after kanamycin selection (control-corrected) (log10(CPM+1)); higher = more efficient recombination; extreme values may be limits of the assay; sequences stand for … in AGTGCAGAGAAAATCGGCCAGTTTTCTCTGCCTGCAGTCCGCATGCCGTGGGACCCCTTGGGTTCTAACCTGTTGCCTAGATTTATGCAGCGGACTGCCTTTCTCCCAAAGTGATAAACCGG…AGGTTGGTTTCACT; site = the 11-nt donor
How it was run: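 Sequenced counts of recombinant UMIs were turned into CPM, averaged across replicates and scaled with control-derived factors. The reported figure is log10(CPM+1). Those UMIs, each 12 nt long, tagged donor and donor-binding-loop pairs on a plasmid with a promoterless kanamycin gene, screened as a pool in Escherichia coli with IPTG (0.07 mM) plus kanamycin or without selection.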
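Also: IS621 bridge recombinase in Escherichia coli cells against a fixed T5 target plasmid.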

Row | Sequence | recombinant UMI read abundance (log10)
1 | CAGAATCCATGGACCGGTTTTCCCGGTAATCCGTATTTGTT (site CCGAATCCTAA) | 0
2 | CAGAATCCATGGACCGGTTTTCCCGGTAATCCGTATTTGTT (site CGGAATCCTAA) | 0.0121
3 | CAGAATCCATGGACCGGTTTTCCCGGTAATCCGTATTTGTT (site CTGAATCCTAA) | 0
4 | CAGAGGCCATGGACCGGTTTTCCCGGTAATCCGTATTTGCT (site CAGAGGCCTAG) | 1.68
5 | CAGAGTCCATGGACCGGTTTTCCCGGTAATCCGTATTTGCC (site CAGAGTCCTGG) | 1.8
6 | CAGAGTCCATGGACCGGTTTTCCCGGTAATCCGTATTTGTT (site CAGAGTCCTAA) | 1.92
7 | CAGAGTCCATGGACCGGTTTTCCCGGTAATCCGTATTTGTT (site CGGAATCCTAA) | 0
8 | CAGATAACATGGACCGGTTTTCCCGGTAATCCGTATTTGGG (site CAGATAACTCC) | 1.1
9 | CAGCAACCATGGACCGGTTTTCCCGGTAATCCGTATTTGCA (site CAGCAACCTTG) | 0
10 | CAGCAATCATGGACCGGTTTTCCCGGTAATCCGTATTTGGT (site CAGCAATCTAC) | 2.73
11 | CAGCCTTCATGGACCGGTTTTCCCGGTAATCCGTATTTGGT (site AAGCCTTCTAC) | 0
12 | CAGCCTTCATGGACCGGTTTTCCCGGTAATCCGTATTTGGT (site CAGCCTTCTAC) | 0.949
13 | CAGCCTTCATGGACCGGTTTTCCCGGTAATCCGTATTTGGT (site GAGCCTTCTAC) | 0.00376
14 | CAGCCTTCATGGACCGGTTTTCCCGGTAATCCGTATTTGGT (site TAGCCTTCTAC) | 0.0206
15 | CAGCCTTCATGGACCGGTTTTCCCGGTAATCCGTATTTGTG (site CAGCCTTCTCA) | 0.108
16 | CAGCGTGCATGGACCGGTTTTCCCGGTAATCCGTATTTGCT (site CAGCGTGCTAG) | 2.76
17 | CAGCTAGCATGGACCGGTTTTCCCGGTAATCCGTATTTGAA (site AAGCTAGCTTT) | 0.0151
18 | CAGCTAGCATGGACCGGTTTTCCCGGTAATCCGTATTTGAA (site CAGCTAGCTTT) | 2.54
19 | CAGCTAGCATGGACCGGTTTTCCCGGTAATCCGTATTTGAA (site GAGCTAGCTTT) | 0.0499
20 | CAGCTAGCATGGACCGGTTTTCCCGGTAATCCGTATTTGAA (site TAGCTAGCTTT) | 0.596
21 | CAGGCAACATGGACCGGTTTTCCCGGTAATCCGTATTTGTG (site CAGGCAACTCA) | 0.912
22 | CAGGCGCCATGGACCGGTTTTCCCGGTAATCCGTATTTGTG (site CAAGCGCCTCA) | 0.0213
23 | CAGGCGCCATGGACCGGTTTTCCCGGTAATCCGTATTTGTG (site CACGCGCCTCA) | 0
24 | CAGGCGCCATGGACCGGTTTTCCCGGTAATCCGTATTTGTG (site CAGGCGCCTCA) | 0.428
25 | CAGGCGCCATGGACCGGTTTTCCCGGTAATCCGTATTTGTG (site CATGCGCCTCA) | 0.0319

Row | Sequence | recombinant UMI read abundance (log10)
26 | CAGGGCCCATGGACCGGTTTTCCCGGTAATCCGTATTTGCA (site CAGGGCCCTTG) | 1.24
27 | CAGGGCCCATGGACCGGTTTTCCCGGTAATCCGTATTTGTT (site CAAGGCCCTAA) | 0
28 | CAGGGCCCATGGACCGGTTTTCCCGGTAATCCGTATTTGTT (site CACGGCCCTAA) | 0.025
29 | CAGGGCCCATGGACCGGTTTTCCCGGTAATCCGTATTTGTT (site CAGGGCCCTAA) | 0.381
30 | CAGGGCCCATGGACCGGTTTTCCCGGTAATCCGTATTTGTT (site CATGGCCCTAA) | 0.00426
31 | CAGGGCTCATGGACCGGTTTTCCCGGTAATCCGTATTTGTT (site CAGGGCTCTAA) | 2.71
32 | CAGGTTCCATGGACCGGTTTTCCCGGTAATCCGTATTTGAA (site CAGGTTCCTTT) | 1.98
33 | CAGGTTGCATGGACCGGTTTTCCCGGTAATCCGTATTTGGC (site CAGGTTGCTGC) | 2.08
34 | CAGTAAGCATGGACCGGTTTTCCCGGTAATCCGTATTTGTG (site CAGTAAGCTCA) | 2.41
35 | CAGTCCACATGGACCGGTTTTCCCGGTAATCCGTATTTGGG (site CAGTCAACTCC) | 0.00382
36 | CAGTCCACATGGACCGGTTTTCCCGGTAATCCGTATTTGGG (site CAGTCCACTCC) | 0.00714
37 | CAGTCCACATGGACCGGTTTTCCCGGTAATCCGTATTTGGG (site CAGTCGACTCC) | 0.024
38 | CAGTCCACATGGACCGGTTTTCCCGGTAATCCGTATTTGGG (site CAGTCTACTCC) | 0
39 | CAGTCCGCATGGACCGGTTTTCCCGGTAATCCGTATTTGCT (site CAGTCCGCTAG) | 2.64
40 | CAGTCCTCATGGACCGGTTTTCCCGGTAATCCGTATTTGCC (site CAATCCTCTGG) | 2.78
41 | CAGTCCTCATGGACCGGTTTTCCCGGTAATCCGTATTTGCC (site CACTCCTCTGG) | 2.05
42 | CAGTCCTCATGGACCGGTTTTCCCGGTAATCCGTATTTGCC (site CAGTCCTCTGG) | 2.38
43 | CAGTCCTCATGGACCGGTTTTCCCGGTAATCCGTATTTGCC (site CATTCCTCTGG) | 0.879
44 | CAGTCGACATGGACCGGTTTTCCCGGTAATCCGTATTTGTG (site CAGTCGACTCA) | 0.661
45 | CAGTCGACATGGACCGGTTTTCCCGGTAATCCGTATTTGTG (site CAGTCGACTCC) | 0.022
46 | CAGTCGACATGGACCGGTTTTCCCGGTAATCCGTATTTGTG (site CAGTCGACTCG) | 0.00379
47 | CAGTCGACATGGACCGGTTTTCCCGGTAATCCGTATTTGTG (site CAGTCGACTCT) | 0.00896
48 | CAGTCGTCATGGACCGGTTTTCCCGGTAATCCGTATTTGGG (site CAGTCGACTCC) | 0.00913
49 | CAGTCGTCATGGACCGGTTTTCCCGGTAATCCGTATTTGGG (site CAGTCGCCTCC) | 0.0207
50 | CAGTCGTCATGGACCGGTTTTCCCGGTAATCCGTATTTGGG (site CAGTCGGCTCC) | 0.0122

Row | Sequence | recombinant UMI read abundance (log10)
51 | CAGTCGTCATGGACCGGTTTTCCCGGTAATCCGTATTTGGG (site CAGTCGTCTCC) | 0.348
52 | CAGTGCTCATGGACCGGTTTTCCCGGTAATCCGTATTTGAA (site CAATGCTCTTT) | 1.35
53 | CAGTGCTCATGGACCGGTTTTCCCGGTAATCCGTATTTGAA (site CACTGCTCTTT) | 0.28
54 | CAGTGCTCATGGACCGGTTTTCCCGGTAATCCGTATTTGAA (site CAGTGCTCTTT) | 2.48
55 | CAGTGCTCATGGACCGGTTTTCCCGGTAATCCGTATTTGAA (site CATTGCTCTTT) | 0.0098
56 | CAGTGGACATGGACCGGTTTTCCCGGTAATCCGTATTTGGG (site CAGTAGACTCC) | 0.368
57 | CAGTGGACATGGACCGGTTTTCCCGGTAATCCGTATTTGGG (site CAGTCGACTCC) | 0.0117
58 | CAGTGGACATGGACCGGTTTTCCCGGTAATCCGTATTTGGG (site CAGTGGACTCC) | 0.0835
59 | CAGTGGACATGGACCGGTTTTCCCGGTAATCCGTATTTGGG (site CAGTTGACTCC) | 0.0125
60 | CAGTTAGCATGGACCGGTTTTCCCGGTAATCCGTATTTGTG (site CAGTTAGCTCA) | 2.09
61 | CAGTTAGCATGGACCGGTTTTCCCGGTAATCCGTATTTGTG (site CCGTTAGCTCA) | 0.0219
62 | CAGTTAGCATGGACCGGTTTTCCCGGTAATCCGTATTTGTG (site CGGTTAGCTCA) | 0.347
63 | CAGTTAGCATGGACCGGTTTTCCCGGTAATCCGTATTTGTG (site CTGTTAGCTCA) | 0.364
64 | CAGTTCCCATGGACCGGTTTTCCCGGTAATCCGTATTTGCT (site CAATTCCCTAG) | 0.806
65 | CAGTTCCCATGGACCGGTTTTCCCGGTAATCCGTATTTGCT (site CACTTCCCTAG) | 0.644
66 | CAGTTCCCATGGACCGGTTTTCCCGGTAATCCGTATTTGCT (site CAGTTCCCTAG) | 0.863
67 | CAGTTCCCATGGACCGGTTTTCCCGGTAATCCGTATTTGCT (site CATTTCCCTAG) | 0.433
68 | CAGTTGGCATGGACCGGTTTTCCCGGTAATCCGTATTTGGA (site CAATTGGCTTC) | 0.882
69 | CAGTTGGCATGGACCGGTTTTCCCGGTAATCCGTATTTGGA (site CACTTGGCTTC) | 0.076
70 | CAGTTGGCATGGACCGGTTTTCCCGGTAATCCGTATTTGGA (site CAGTTGGCTTC) | 1.72
71 | CAGTTGGCATGGACCGGTTTTCCCGGTAATCCGTATTTGGA (site CATTTGGCTTC) | 0.00616
72 | CATAATACATGGACCGGTTTTCCCGGTAATCCGTATTTGGC (site CATAATACTGC) | 1.88
73 | CATAATACATGGACCGGTTTTCCCGGTAATCCGTATTTGGC (site CCTAATACTGC) | 0
74 | CATAATACATGGACCGGTTTTCCCGGTAATCCGTATTTGGC (site CGTAATACTGC) | 0
75 | CATAATACATGGACCGGTTTTCCCGGTAATCCGTATTTGGC (site CTTAATACTGC) | 0
